Data taken from ChEMBL document CHEMBL5625192, “Discovery of Ibrutinib-based BTK PROTACs with in vivo anti-inflammatory efficacy by inhibiting NF-κB activation” (Eur J Med Chem, 2023).
Active and inactive are the calls of the source. The calls are words filed in the database; no cut-off is given here.

How the values were obtained:
Type in all cases: cell-based
[1] = molecular target: T1, Protein cereblon/Tyrosine-protein kinase BTK (Homo sapiens, UniProt Q06187+Q96SW2); assay: PROTAC activity at CRBN/BTK in human Ramos cells assessed as induction of BTK degradation at 100 nM incubated for 24 hrs by Western blot analysis
Target sequence in this assay (Q06187 2-659 limits assumed): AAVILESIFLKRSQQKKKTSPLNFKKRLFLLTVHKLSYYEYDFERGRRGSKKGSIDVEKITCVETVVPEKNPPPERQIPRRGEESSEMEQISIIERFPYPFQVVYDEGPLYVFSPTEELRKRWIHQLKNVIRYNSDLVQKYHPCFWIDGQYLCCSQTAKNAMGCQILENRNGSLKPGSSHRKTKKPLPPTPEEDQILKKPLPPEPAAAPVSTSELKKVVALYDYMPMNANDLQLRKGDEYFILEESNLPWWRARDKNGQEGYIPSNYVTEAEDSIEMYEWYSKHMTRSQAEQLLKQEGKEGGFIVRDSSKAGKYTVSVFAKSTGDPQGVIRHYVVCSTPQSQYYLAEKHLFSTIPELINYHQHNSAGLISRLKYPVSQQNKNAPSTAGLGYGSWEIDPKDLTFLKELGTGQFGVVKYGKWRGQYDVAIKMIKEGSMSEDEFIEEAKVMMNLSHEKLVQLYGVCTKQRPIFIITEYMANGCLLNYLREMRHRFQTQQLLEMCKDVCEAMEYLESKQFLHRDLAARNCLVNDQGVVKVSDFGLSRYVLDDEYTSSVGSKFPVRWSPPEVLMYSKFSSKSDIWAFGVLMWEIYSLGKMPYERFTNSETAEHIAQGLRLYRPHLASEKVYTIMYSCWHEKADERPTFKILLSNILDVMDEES
Target sequence in this assay (Q96SW2 whole entry partner): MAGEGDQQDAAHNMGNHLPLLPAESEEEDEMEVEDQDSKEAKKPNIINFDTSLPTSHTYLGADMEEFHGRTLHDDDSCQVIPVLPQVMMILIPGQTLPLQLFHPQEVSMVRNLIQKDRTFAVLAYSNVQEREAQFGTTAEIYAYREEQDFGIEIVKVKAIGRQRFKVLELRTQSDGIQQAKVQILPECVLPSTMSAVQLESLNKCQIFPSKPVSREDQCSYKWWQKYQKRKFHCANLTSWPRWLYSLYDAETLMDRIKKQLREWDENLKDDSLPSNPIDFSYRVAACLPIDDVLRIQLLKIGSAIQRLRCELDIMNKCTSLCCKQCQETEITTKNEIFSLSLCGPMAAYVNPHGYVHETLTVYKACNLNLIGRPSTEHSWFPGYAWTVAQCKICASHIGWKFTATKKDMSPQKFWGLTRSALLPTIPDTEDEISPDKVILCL

[2] = molecular target: T1, Protein cereblon/Tyrosine-protein kinase BTK; assay: PROTAC activity at CRBN/BTK in human Ramos cells assessed as induction of BTK degradation at 100 nM incubated for 24 hrs by Western blot analysis relative to control
Target sequence in this assay (Q06187 2-659 limits assumed): as the sequence (Q06187 2-659 limits assumed) above
Target sequence in this assay (Q96SW2 whole entry partner): as the sequence (Q96SW2 whole entry partner) above

[3] = molecular target: T1, Protein cereblon/Tyrosine-protein kinase BTK; assay: PROTAC activity at CRBN/BTK in human Ramos cells assessed as induction of BTK degradation by measuring maximal efficacy incubated for 24 hrs by Western blot analysis relative to control
Target sequence in this assay (Q06187 2-659 limits assumed): as the sequence (Q06187 2-659 limits assumed) above
Target sequence in this assay (Q96SW2 whole entry partner): as the sequence (Q96SW2 whole entry partner) above

[4] = molecular target: T1, Protein cereblon/Tyrosine-protein kinase BTK; assay: PROTAC activity at CRBN/BTK in human Ramos cells assessed as hook effect at 10000 nM incubated for 24 hrs by Western blot analysis
Target sequence in this assay (Q06187 2-659 limits assumed): as the sequence (Q06187 2-659 limits assumed) above
Target sequence in this assay (Q96SW2 whole entry partner): as the sequence (Q96SW2 whole entry partner) above

[5] = molecular target: T1, Protein cereblon/Tyrosine-protein kinase BTK; assay: PROTAC activity at CRBN/BTK in human Ramos cells assessed as induction of BTK degradation incubated for 24 hrs by Western blot analysis
Target sequence in this assay (Q06187 whole entry): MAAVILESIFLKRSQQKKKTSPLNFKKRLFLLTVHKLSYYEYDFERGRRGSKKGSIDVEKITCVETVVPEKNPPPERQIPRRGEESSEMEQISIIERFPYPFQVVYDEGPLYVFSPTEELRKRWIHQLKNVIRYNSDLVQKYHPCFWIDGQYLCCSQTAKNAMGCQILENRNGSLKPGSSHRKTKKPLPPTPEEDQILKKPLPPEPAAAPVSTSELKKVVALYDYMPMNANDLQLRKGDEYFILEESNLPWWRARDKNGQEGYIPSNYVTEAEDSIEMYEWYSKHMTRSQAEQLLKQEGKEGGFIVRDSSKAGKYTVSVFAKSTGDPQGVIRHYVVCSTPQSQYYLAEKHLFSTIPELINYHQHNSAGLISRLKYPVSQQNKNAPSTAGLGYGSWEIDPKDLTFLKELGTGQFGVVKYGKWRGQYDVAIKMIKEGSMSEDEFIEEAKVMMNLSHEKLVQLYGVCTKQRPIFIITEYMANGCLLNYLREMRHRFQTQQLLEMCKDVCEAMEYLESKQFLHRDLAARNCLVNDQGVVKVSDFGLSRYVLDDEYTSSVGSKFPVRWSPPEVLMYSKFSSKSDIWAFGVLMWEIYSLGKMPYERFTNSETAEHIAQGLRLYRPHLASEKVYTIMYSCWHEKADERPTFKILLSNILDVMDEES
Target sequence in this assay (Q96SW2 whole entry): as the sequence (Q96SW2 whole entry partner) above

[6] = molecular target: T1, Protein cereblon/Tyrosine-protein kinase BTK; assay: PROTAC activity at CRBN/BTK in human Ramos cells assessed as induction of BTK degradation at 100 nM measured within 4 hrs by Western blot analysis
Target sequence in this assay (Q06187 2-659 limits assumed): as the sequence (Q06187 2-659 limits assumed) above
Target sequence in this assay (Q96SW2 whole entry partner): as the sequence (Q96SW2 whole entry partner) above

[7] = molecular target: T1, Protein cereblon/Tyrosine-protein kinase BTK; assay: PROTAC activity at CRBN/BTK in human Ramos cells assessed as induction of BTK degradation at 100 nM pretreated with MG132 for 2 hrs followed by compound treatment and measured after 8 hrs by Western blot analysis
Target sequence in this assay (Q06187 2-659 limits assumed): as the sequence (Q06187 2-659 limits assumed) above
Target sequence in this assay (Q96SW2 whole entry partner): as the sequence (Q96SW2 whole entry partner) above

[8] = molecular target: T1, Protein cereblon/Tyrosine-protein kinase BTK; assay: PROTAC activity at CRBN/BTK in human MINO cells assessed as induction of BTK degradation incubated for 24 hrs by Western blot analysis
Target sequence in this assay (Q06187 whole entry): as the sequence (Q06187 whole entry) above
Target sequence in this assay (Q96SW2 whole entry): as the sequence (Q96SW2 whole entry partner) above

[9] = molecular target: T1, Protein cereblon/Tyrosine-protein kinase BTK; assay: PROTAC activity at CRBN/BTK in human MINO cells assessed as induction of BTK degradation by measuring maximal efficacy incubated for 24 hrs by Western blot analysis relative to control
[10] = molecular target: T1, Protein cereblon/Tyrosine-protein kinase BTK; assay: PROTAC activity at CRBN/BTK in human MINO cells assessed as hook effect upto 10000 nM incubated for 24 hrs by Western blot analysis
[11] = molecular target: T1, Protein cereblon/Tyrosine-protein kinase BTK; assay: PROTAC activity at CRBN/BTK in human Ramos cells assessed as induction of BTK degradation at 100 nM pretreated with ibrutinib for 2 hrs followed by compound treatment and measured after 8 hrs by Western blot analysis
[12] = molecular target: T1, Protein cereblon/Tyrosine-protein kinase BTK; assay: PROTAC activity at CRBN/BTK in human Ramos cells assessed as induction of BTK degradation at 100 nM pretreated with pomalidomide for 2 hrs followed by compound treatment and measured after 8 hrs by Western blot analysis
[13] = molecular target: T1, Protein cereblon/Tyrosine-protein kinase BTK; assay: PROTAC activity at CRBN/BTK in human Ramos cells assessed as induction of BTK degradation at 100 nM measured after 8 hrs by Western blot analysis relative to control
[14] = molecular target: T1, Protein cereblon/Tyrosine-protein kinase BTK; assay: PROTAC activity at CRBN/BTK in human Ramos cells assessed as induction of BTK degradation at 100 nM pretreated with bafilomycin for 2 hrs followed by compound treatment and measured after 8 hrs by Western blot analysis
[15] = molecular target: T1, Protein cereblon/Tyrosine-protein kinase BTK; assay: PROTAC activity at CRBN/BTK in human Ramos cells assessed as hook effect at 1000 nM incubated for 24 hrs by Western blot analysis
[16] = molecular target: T1, Protein cereblon/Tyrosine-protein kinase BTK; assay: PROTAC activity at CRBN/BTK in human MINO cells assessed as hook effect at >10000 nM incubated for 24 hrs by Western blot analysis

SMILES	Activity [2]	Emax [3]	EC50 [5]	other results
Nc1ncnc2c1c(-c1ccc(Oc3ccccc3)cc1)nn2C1CCN(CC2CCN(c3cccc4c3C(=O)N(C3CCC(=O)NC3=O)C4=O)CC2)CC1 (centres undefined)	–	–	–	Activity [1]: inactive
Nc1ncnc2c1c(-c1ccc(Oc3ccccc3)cc1)nn2C1CCN(C(=O)CN2CCN(CCOCCOCC(=O)Nc3ccc4c(c3)C(=O)N(C3CCC(=O)NC3=O)C4=O)CC2)CC1 (centres undefined)	38.9%	–	–	–
Nc1ncnc2c1c(-c1ccc(Oc3ccccc3)cc1)nn2C1CCN(C(=O)CCCN2CCN(C(=O)CCC(=O)Nc3ccc4c(c3)C(=O)N(C3CCC(=O)NC3=O)C4=O)CC2)CC1 (centres undefined)	41.8%	–	–	–
Nc1ncnc2c1c(-c1ccc(Oc3ccccc3)cc1)nn2C1CCN(C(=O)CCCN2CCN(CCOCC(=O)Nc3ccc4c(c3)C(=O)N(C3CCC(=O)NC3=O)C4=O)CC2)CC1 (centres undefined)	40%	–	–	–
Nc1ncnc2c1c(-c1ccc(Oc3ccccc3)cc1)nn2C1CCN(C(=O)CN2CCN(CC3CCN(c4ccc5c(c4)C(=O)N(C4CCC(=O)NC4=O)C5=O)CC3)CC2)CC1 (centres undefined)	99.7%	99.7%	6.11 nM	Activity [6]: Active; Activity [7]: inactive; EC50 [8]: 2.93 nM; Emax [9]: 99.7%; Activity [10]: inactive; Activity [11]: inactive; Activity [12]: inactive; Activity [4]: inactive; Activity [13]: 100%; Activity [14]: Active
Nc1ncnc2c1c(-c1ccc(Oc3ccccc3)cc1)nn2C1CCN(CCOCCOCC(=O)Nc2ccc3c(c2)C(=O)N(C2CCC(=O)NC2=O)C3=O)CC1 (centres undefined)	75.7%	92.4%	63.3 nM	–
Nc1ncnc2c1c(-c1ccc(Oc3ccccc3)cc1)nn2C1CCN(C(=O)c2ccc(N3CCN(c4ccc5c(c4)C(=O)N(C4CCC(=O)NC4=O)C5=O)CC3)nc2)CC1 (centres undefined)	71.7%	97.8%	26.9 nM	Activity [4]: Active
Nc1ncnc2c1c(-c1ccc(Oc3ccccc3)cc1)nn2C1CCN(C(=O)CN2CCN(CCOCC(=O)Nc3ccc4c(c3)C(=O)N(C3CCC(=O)NC3=O)C4=O)CC2)CC1 (centres undefined)	28.5%	–	–	–
Nc1ncnc2c1c(-c1ccc(Oc3ccccc3)cc1)nn2C1CCN(C(=O)CN2CCN(C(=O)CCC(=O)Nc3ccc4c(c3)C(=O)N(C3CCC(=O)NC3=O)C4=O)CC2)CC1 (centres undefined)	61.5%	–	–	–
Nc1ncnc2c1c(-c1ccc(Oc3ccccc3)cc1)nn2C1CCN(CC2CN(CC3CN(c4ccc5c(c4)C(=O)N(C4CCC(=O)NC4=O)C5=O)C3)C2)CC1 (centres undefined)	31.5%	–	–	–
Nc1ncnc2c1c(-c1ccc(Oc3ccccc3)cc1)nn2C1CCN(C(=O)CN2CCN(C(=O)CCCC(=O)Nc3ccc4c(c3)C(=O)N(C3CCC(=O)NC3=O)C4=O)CC2)CC1 (centres undefined)	61.9%	–	–	–
Nc1ncnc2c1c(-c1ccc(Oc3ccccc3)cc1)nn2C1CCN(C(=O)CN2CCC(CN3CCN(CC#Cc4ccc5c(c4)C(=O)N(C4CCC(=O)NC4=O)C5=O)CC3)CC2)CC1 (centres undefined)	33.6%	–	–	–
Nc1ncnc2c1c(-c1ccc(Oc3ccccc3)cc1)nn2C1CCN(C(=O)CN2CCN(CC#Cc3ccc4c(c3)C(=O)N(C3CCC(=O)NC3=O)C4=O)CC2)CC1 (centres undefined)	39.5%	–	–	–
Nc1ncnc2c1c(-c1ccc(Oc3ccccc3)cc1)nn2C1CCN(C(=O)CN2CCC(N3CCN(CC#Cc4ccc5c(c4)C(=O)N(C4CCC(=O)NC4=O)C5=O)CC3)CC2)CC1 (centres undefined)	57.8%	–	–	–
Nc1ncnc2c1c(-c1ccc(Oc3ccccc3)cc1)nn2C1CCN(C(=O)CCCN2CCN(CCOCCOCC(=O)Nc3ccc4c(c3)C(=O)N(C3CCC(=O)NC3=O)C4=O)CC2)CC1 (centres undefined)	55%	–	–	–
Nc1ncnc2c1c(-c1ccc(Oc3ccccc3)cc1)nn2C1CCN(CC2CN(c3cccc4c3C(=O)N(C3CCC(=O)NC3=O)C4=O)C2)CC1 (centres undefined)	–	–	–	Activity [1]: inactive

The next lines start with results.

Activity [2]	Emax [3]	EC50 [5]	SMILES	other results
62.7%	97.8%	51.1 nM	Nc1ncnc2c1c(-c1ccc(Oc3ccccc3)cc1)nn2C1CCN(Cc2ccc(C#CC3CCN(c4ccc5c(c4)C(=O)N(C4CCC(=O)NC4=O)C5=O)CC3)nc2)CC1 (centres undefined)	Activity [4]: Active
47.4%	–	–	Nc1ncnc2c1c(-c1ccc(Oc3ccccc3)cc1)nn2C1CCN(C(=O)c2ccc(N3CCN(CC#Cc4ccc5c(c4)C(=O)N(C4CCC(=O)NC4=O)C5=O)CC3)nc2)CC1 (centres undefined)	–
31.3%	–	–	Nc1ncnc2c1c(-c1ccc(Oc3ccccc3)cc1)nn2C1CCN(CC2CN(CC3CN(c4cccc5c4C(=O)N(C4CCC(=O)NC4=O)C5=O)C3)C2)CC1 (centres undefined)	–
67.5%	97.6%	7.27 nM	Nc1ncnc2c1c(-c1ccc(Oc3ccccc3)cc1)nn2C1CCN(C(=O)CN2CCN(CC3CN(c4cccc5c4C(=O)N(C4CCC(=O)NC4=O)C5=O)C3)CC2)CC1 (centres undefined)	EC50 [8]: 9.06 nM; Emax [9]: 99.7%; Activity [15]: Active; Activity [16]: Active
91%	99.4%	9.37 nM	Nc1ncnc2c1c(-c1ccc(Oc3ccccc3)cc1)nn2C1CCN(C(=O)CN2CCN(CC3CCN(c4cccc5c4C(=O)N(C4CCC(=O)NC4=O)C5=O)CC3)CC2)CC1 (centres undefined)	EC50 [8]: 10.3 nM; Emax [9]: 99.5%; Activity [15]: Active; Activity [16]: Active; Activity [4]: Active
58.6%	95%	46.1 nM	Nc1ncnc2c1c(-c1ccc(Oc3ccccc3)cc1)nn2C1CCN(Cc2ccc(C#CC3CCN(c4cccc5c4C(=O)N(C4CCC(=O)NC4=O)C5=O)CC3)nc2)CC1 (centres undefined)	Activity [4]: Active
36.2%	–	–	Nc1ncnc2c1c(-c1ccc(Oc3ccccc3)cc1)nn2C1CCN(CC2CN(CC3CCN(c4cccc5c4C(=O)N(C4CCC(=O)NC4=O)C5=O)CC3)C2)CC1 (centres undefined)	–
